The subject of data set [1] is rats. To be noted: cited from earlier work.
In data set [2] the test system is Chinese Hamster Ovary cells. To be noted: cited from earlier work.
Data set [3] has as its system human peripheral blood lymphocytes. Conditions: in vitro; cited from earlier work.
The conditions of data set [4]: Ames Test; cited from earlier work.
In data set [5] the test system is patients with Huntington's disease. Conditions: eight patients with Huntington's disease, open-label; cited from earlier work.
The conditions of data set [6]: humans, cited from earlier work.
In data set [7] the test system is mouse bone marrow. To be noted: in vivo mouse bone marrow micronucleus test; cited from earlier work.
For data set [8] the following is noted: by glomerular filtration and renal tubular secretion; cited from earlier work.
Data set [9] relates to retinas from rats. Nature of the data set: RNA expression profiling of retina, vehicle vs. (low dose & high dose) amantadine at steady state. Type of data set: in vivo, Sprague Dawley rats.

With `Cl.NC12CC3CC(CC(C3)C1)C2` [amantadine, 1-amino adamantane HCl], the teratogenic dose in [1] is 50 mg/kg/day. Also, the mutagenicity entry in [2] and in data set [4] was “non-mutagenic” throughout. For the same compound, the chromosomal damage result in data set [3] and in data set [7] was “no evidence of chromosomal damage” in each case. The dyskinesias result in data set [5] is listed as “significant reduction of dyskinesias”. Further, in [6], the “half-life, range” value was 10 to 25 h. Besides, the half-life in data set [6] (mean ± spread) was 17 ± 4 h. Moreover, the excretion entry in data set [8] is “primarily excreted unchanged in the urine”. Further, the TRADD gene expression entry in data set [9] (retinas following amantadine treatment, no fold change printed) is “down-regulated”. Moreover, the “up-regulation of several crystallins” value in data set [9] (retinas of amantadine-treated rats) is reported as 4-21 fold.

Values taken from patent US20080033053A1, “Cross-Reference To Related Applications” (priority 2004, published 2008).
